In patent publication US11945808B2, “Substituted cyclohexyl compounds as NOP inhibitors” (Dart NeuroScience, LLC, priority 2018, dated 2024):

What follows are molecules tested against human opioid NOP (Homo sapiens, UniProt P41146) (assay: Cell-based NOP cAMP assay (LANCE cAMP, TR-FRET)). Settings: antagonism of nociceptin in cAMP assay, cells expressing human NOP, forskolin-stimulated; values given as ranges; read-out: NOP (pIC50) (converted).
Protocol: Formula (I) compounds were tested for antagonism of the nociceptin receptor (NOP) in a cell-based cAMP assay, using the LANCE cAMP Detection Kit, Perkin Elmer (Waltham, MA). This assay (LANCE cAMP) is a homogeneous, time-resolved fluorescence resonance energy transfer (TR-FRET) immunoassay designed to measure cAMP produced upon modulation of adenylyl cyclase activity by G protein-coupled receptors (GPCRs).
Cells expressing human opioid NOP (ValiScreen cell line, cat #ES-230-C Perkin Elmer (Waltham, MA) were dispensed in simulation buffer (5 mM Hepes, 0.1% BSA, 0.5 mM IBMX in Hanks Buffered Saline Solution) at 2.5 μL cells per well (400 cells/well) into a 1536 white TC-treated assay plate. Compound was then added and plates were incubated for 15 minutes at room temperature. To each well was added 2.5 μL of a solution containing forskolin (3 μM final) and nociceptin peptide ([…] final) diluted in stimulation buffer, and the plates were incubated for 30 minutes at room temperature. To each well was dispensed 5 μL of LANCE Ultra detection (1:300 dilution of anti-cAMP ULight with a 1:100 dilution of Eu-cAMP tracer diluted in cAMP Detection Buffer) reagent, and the plates were incubated for 1 hr at room temperature. The plate was then read on the ViewLux microplate reader (Perkin Elmer, Waltham, MA) using the LANCE 1536 protocol with 60 second exposure times and 50 μs delay. This protocol has an excitation wavelength of 340 nm (DUG11 filter) and emission wavelengths of 615 nm (Eu-Donor) and 665 nm (Alexa 647 cAMP antibody acceptor).
Data was analyzed, normalized, and visualized using ACAS (John McNeil & Co.). Efficacy was calculated using activity of the vehicle (DMSO) as 0% efficacy and the activity of the corresponding reference positive control (SCH 221510, Tocris Bioscience (Pittsburgh, PA), Catalog number 3240) as 100% efficacy. Activity was calculated as the ratio of donor and acceptor emissions. All curve fits and IC50 determinations were performed using a non-linear regression model. The IC50 value was measured as the concentration at which half-maximal response was calculated.

Sequence of human opioid NOP (P41146 whole entry): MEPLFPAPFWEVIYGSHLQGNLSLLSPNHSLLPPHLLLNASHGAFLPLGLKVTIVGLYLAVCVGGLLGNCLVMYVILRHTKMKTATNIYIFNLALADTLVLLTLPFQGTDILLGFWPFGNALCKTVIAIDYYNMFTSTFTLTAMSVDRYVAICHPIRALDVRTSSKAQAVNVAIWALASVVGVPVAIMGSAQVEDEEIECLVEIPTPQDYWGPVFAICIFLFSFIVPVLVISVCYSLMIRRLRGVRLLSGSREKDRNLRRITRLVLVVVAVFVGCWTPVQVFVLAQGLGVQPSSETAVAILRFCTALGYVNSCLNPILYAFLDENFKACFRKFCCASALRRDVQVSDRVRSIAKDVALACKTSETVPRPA

IC50, 0.1 to 1 µM:
Cc1c(F)c(F)ccc1[C@H]1CC[C@H](CCNC2(C(N)=O)CCOCC2)CC1 [Example 49, 4-((2-((trans)-4-(3,4-difluoro-2-methylphenyl)cyclohexyl)ethyl)amino)tetrahydro-2H-pyran-4-carboxamide]

IC50, > 1 µM:
CC(=O)N1CCC(NCCC2CCC(c3ncccc3C)CC2)CC1 (stereo not shown) [Example 174, 1-[4-({2-[4-(3-Methylpyridin-2-yl)cyclohexyl]ethyl}amino)piperidin-1-yl]ethan-1-one]
NC(=O)C1(NCCC2CCC(c3ncccc3Cl)CC2)CCCC1 (stereo not shown) [Example 116, 1-({2-[4-(3-Chloropyridin-2-yl)cyclohexyl]ethyl}amino)cyclopentane-1-carboxamide]
CNC(=O)C1(NCC[C@H]2CC[C@H](c3ncc(F)cc3C(F)(F)F)CC2)CCOCC1 [Example 51, 4-((2-((trans)-4-(5-fluoro-3-(trifluoromethyl)pyridin-2-yl)cyclohexyl)ethyl)amino)-N-methyltetrahydro-2H-pyran-4-carboxamide]
Cc1cnccc1C1CCC(CCNC2CCN(C)CC2)CC1 (stereo not shown) [Example 187, 1-Methyl-N-{2-[4-(3-methylpyridin-4-yl)cyclohexyl]ethyl}piperidin-4-amine]
Cc1nccnc1[C@H]1CC[C@H](CCNC2CCOCC2)CC1 [Example 88, N-(2-((trans)-4-(3-methylpyrazin-2-yl)cyclohexyl)ethyl)tetrahydro-2H-pyran-4-amine]
Fc1cnc([C@H]2CC[C@H](CCNC3CCOCC3)CC2)nc1 [Example 12, N-(2-((trans)-4-(5-fluoropyrimidin-2-yl)cyclohexyl)ethyl)tetrahydro-2H-pyran-4-amine]
Cc1cnccc1C1CCC(CCNC2(C(N)=O)CCCC2)CC1 (stereo not shown) [Example 123, 1-({2-[4-(3-Methylpyridin-4-yl)cyclohexyl]ethyl}amino)cyclopentane-1-carboxamide]
CC(=O)N1CCC(NCCC2CCC(c3cc(F)ccc3Cl)CC2)CC1 (stereo not shown) [Example 178, 1-[4-({2-[4-(2-Chloro-5-fluorophenyl)cyclohexyl]ethyl}amino)piperidin-1-yl]ethan-1-one]
COCC1(NCCC2CCC(c3ncccc3Cl)CC2)CCOCC1 (stereo not shown) [Example 146, N-{2-[4-(3-Chloropyridin-2-yl)cyclohexyl]ethyl}-4-(methoxymethyl)oxan-4-amine]
Cc1ccncc1C1CCC(CCNC2(C(N)=O)CCCC2)CC1 (stereo not shown) [Example 118, 1-({2-[4-(4-Methylpyridin-3-yl)cyclohexyl]ethyl}amino)cyclopentane-1-carboxamide]
CN1CCC(NCCC2CCC(c3ncccc3Cl)CC2)CC1 (stereo not shown) [Example 181, N-{2-[4-(3-Chloropyridin-2-yl)cyclohexyl]ethyl}-1-methylpiperidin-4-amine]
CN1CCC(NCCC2CCC(c3cccc(F)c3Cl)CC2)CC1 (stereo not shown) [Example 179, N-{2-[4-(2-Chloro-3-fluorophenyl)cyclohexyl]ethyl}-1-methylpiperidin-4-amine]
Cc1ccncc1C1CCC(CCNC2(C)CCCC2)CC1 (stereo not shown) [Example 111, 1-Methyl-N-{2-[4-(4-methylpyridin-3-yl)cyclohexyl]ethyl}cyclopentan-1-amine]
Cc1cnccc1C1CCC(CCNC2(C)CCOCC2)CC1 (stereo not shown) [Example 139, 4-Methyl-N-{2-[4-(3-methylpyridin-4-yl)cyclohexyl]ethyl}oxan-4-amine]
CC(=O)N1CCC(NCCC2CCC(c3ncccc3Cl)CC2)CC1 (stereo not shown) [Example 173, 1-[4-({2-[4-(3-Chloropyridin-2-yl)cyclohexyl]ethyl}amino)piperidin-1-yl]ethan-1-one]
CC(=O)N1CCC(NCCC2CCC(c3cccc(F)c3Cl)CC2)CC1 (stereo not shown) [Example 171, 1-[4-({2-[4-(2-Chloro-3-fluorophenyl)cyclohexyl]ethyl}amino)piperidin-1-yl]ethan-1-one]
CC1(NCCC2CCC(c3cccc(F)c3Cl)CC2)CCCC1 (stereo not shown) [Example 106, N-{2-[4-(2-Chloro-3-fluorophenyl)cyclohexyl]ethyl}-1-methylcyclopentan-1-amine]
NC(=O)C1(NCCC2CCC(c3cccc(F)c3Cl)CC2)CCCC1 (stereo not shown) [Example 114, 1-({2-[4-(2-Chloro-3-fluorophenyl)cyclohexyl]ethyl}amino)cyclopentane-1-carboxamide]
CC(=O)N1CCC(NCCC2CCC(c3ncc(F)cc3Cl)CC2)CC1 (stereo not shown) [Example 172, 1-[4-({2-[4-(3-Chloro-5-fluoropyridin-2-yl)cyclohexyl]ethyl}amino)piperidin-1-yl]ethan-1-one]
Cc1cccnc1C1CCC(CCNC2CCN(C)CC2)CC1 (stereo not shown) [Example 182, 1-Methyl-N-{2-[4-(3-methylpyridin-2-yl)cyclohexyl]ethyl}piperidin-4-amine]
Cc1cnccc1C1CCC(CCNC2(C)CCCC2)CC1 (stereo not shown) [Example 121, 1-Methyl-N-{2-[4-(3-methylpyridin-4-yl)cyclohexyl]ethyl}cyclopentan-1-amine]
CC(=O)N1CCC(NCCC2CCC(c3cnccc3C)CC2)CC1 (stereo not shown) [Example 175, 1-[4-({2-[4-(4-Methylpyridin-3-yl)cyclohexyl]ethyl}amino)piperidin-1-yl]ethan-1-one]
Cc1cccnc1C1CCC(CCNC2(C(N)=O)CCCC2)CC1 (stereo not shown) [Example 117, 1-({2-[4-(3-Methylpyridin-2-yl)cyclohexyl]ethyl}amino)cyclopentane-1-carboxamide]
CNC(=O)C1(NCC[C@H]2CC[C@@H](c3ncc(F)cc3C(F)(F)F)CC2)CCOCC1 [Example 50, 4-((2-((cis)-4-(5-fluoro-3-(trifluoromethyl)pyridin-2-yl)cyclohexyl)ethyl)amino)-N-methyltetrahydro-2H-pyran-4-carboxamide]

IC50, < 0.001 µM:
Fc1ccc([C@H]2CC[C@@H](CCNC3CCOCC3F)CC2)c(Cl)c1 (single isomer, unassigned) [Example 57, N-(2-((cis)-4-(2-chloro-4-fluorophenyl)cyclohexyl)ethyl)-3-fluorotetrahydro-2H-pyran-4-amine]

IC50, 0.001 to 0.01 µM:
O=C1CC(NCC[C@H]2CC[C@H](c3ccc(F)cc3Cl)CC2)CCN1 (mixture of isomers) [Example 163, Racemic-4-({2-[(trans)-4-(2-Chloro-4-fluorophenyl)cyclohexyl]ethyl}amino)piperidin-2-one]
Clc1cccc(Cl)c1C1CCC(CCNC2CCOCC2)CC1 (single isomer, unassigned) [Example 8, N-(2-((cis)-4-(2,6-dichlorophenyl)cyclohexyl)ethyl)tetrahydro-2H-pyran-4-amine]
